Experimental data taken from patent publication US9650332B1, “Prodrug of probucol and method for preparing the same” (priority 2016, dated 2017).

Assay: Pharmacokinetic studies of the prodrugs of probucol in rats (oral gavage, plasma LC/MS/MS)
Assay type: in vivo
Conditions: male, Sprague Dawley, rat, 20 mg/kg prodrug by oral gavage, overnight fasting, analyte: prodrug; for AUC(0-t): read-out: AUC0-t of the prodrug in blood; for Cmax: read-out: Cmax of the prodrug in blood; for Tmax: read-out: tmax of the prodrug in blood
Procedure: Four different kinds of probucol's prodrugs were prepared based on the example 1, 2, 3 and 4 to evaluate their pharmacodynamic and pharmacokinetic characteristics in rats.
Three Sprague Dawley Male Rats were used in each experiment for each prodrug. The laboratory animal models are provided by Shanghai Super-B&K laboratory animal Corp. Ltd. (No. Of animal license SYXK(HU)2008-0016).
Weighed 20 mg sample and dissolved it with 1 ml ethanol. Then, in turn, added 1 ml Solutol HS15 and 8 ml pH4.63 acetate buffer to make the final solution with the concentration of 2 mg/ml. The left soup were saved to run quantitative analysis.
Three Sprague Dawley male rats were given the dose of […] (volume: 10 ml/kg) drugs by oral gavage under the condition of overnight fasting.
Blood (volume: 0.1 ml) was drawn at 0.5, 1.0, 2.0, 4.0, 6.0, 8.0, 24.0 hours pre-dose and post-dose respectively to all animal subjects. Saved the blood samples in heparinized tubes and then centrifuged them for 10 minutes at […] at 4° C. The separated plasma was stored at −20° C. All the process including blood collection and blood analysis should be conducted in low temperatures. Standard meals were provided after 2 hours of dosing.
API 4000 QTRAP LC/MS/MS (Applied Biosystems Corporation, US)
LC-20AD HPLC system (Shimadzu Corporation, Japan)
The prodrug and metabolite probucol were measured at the same time. Took 25 ul rat plasma that drawn at different time points after dosing, and then added 50 ul internal standard YX1162 (200 ng/ml, prepared by acetonitrile) and 175 ul acetonitrile, vortex mixed for 3 minutes, and then centrifuged at 13500 rpm for 10 minutes. Took 10 ul supernatant to run LC/MS/MS analysis.
The prodrug and metabolite probucol were measured at the same time. Took 25 ul rat blank plasma, then added 25 ul solution of standard series to make the drug concentration 1.00, 2.00, 5.00, 25.0, 100, 500, 2000, 20000 and 40000 ng/ml. Next, added 50 ul internal standard YX1162 (200 ng/ml, prepared by acetonitrile) and 150 ul acetonitrile, then followed the same protocol shown in 3.4.
Set plasma concentration as X-axis and the ratio of chromatographic peak areas for sample and internal standard as Y-axis, then used weighted least square method (w=1/x^2) to conduct linear regression analysis.

Row | AUC(0-t) | Cmax | Tmax | SMILES
1 | 758 ± 204 ng·h/mL | 218 ± 26 ng/mL | 2.17 ± 1.31 h | CCOC(=O)OCOc1c(C(C)(C)C)cc(SC(C)(C)Sc2cc(C(C)(C)C)c(O)c(C(C)(C)C)c2)cc1C(C)(C)C [Example 1]
2 | 1070 ± 404 ng·h/mL | 268 ± 56 ng/mL | 2.37 ± 1.41 h | CCOC(=O)OC(C)Oc1c(C(C)(C)C)cc(SC(C)(C)Sc2cc(C(C)(C)C)c(O)c(C(C)(C)C)c2)cc1C(C)(C)C (stereo not drawn) [Example 2]
